Source: patent publication US4863918A, “Enamine quaternary compounds, methods of making and their use as muscle relaxants” (BOC, Inc., priority 1988, dated 1989)

What was measured:
paw twitch [1] = experiment: Twitch depression (muscle relaxant effect) in anesthetized dogs; dog paw twitch; type: in vivo, mongrel dogs; conditions: Table V; for Equi-efficacious dose / ED90: dog paw twitch; for Duration (DURAT.) / Onset / Recovery (RECOV.): dog, at equi-efficacious dose; for ED90: Canis lupus familiaris, iv, read-out: Equi-efficacious dose
Description: (§1) Mongrel dogs were injected with 50 mg/kg of pentobarbital until the onset of anesthesia as determined by the eyeblink reflex test. The injectable solutions prepared above were administered intravenously to the anesthesized mongrel dogs and measurements were made of the muscle relaxant effect including maximum twitch depression, onset, duration and recovery time in a clinically known manner. Each of the subjects were compared with a control animal receiving an injection of distilled water.

paw twitch [2] = experiment: Twitch depression (muscle relaxant effect) in anesthetized rabbits; rabbit paw twitch; type: in vivo, New Zealand White rabbits; conditions: Table IV; for Equi-efficacious dose / ED90: rabbit paw twitch; for Duration (DURAT.) / Onset / Recovery (RECOV.): rabbit, at equi-efficacious dose; for ED90: Oryctolagus cuniculus, read-out: Equi-efficacious dose
Description: [The procedure below names another organism; the source lists this organism under the same test.] as §1
The same compound of the present invention as in
A number of compounds in accordance with the present invention were tested for their neuromuscular blockade Properties. Specifically, the acid addition salts of the compounds were dissolved in sterile water for injection.

[3] = Cardiovascular change (HR, BP) at equi-efficacious dose in rabbits; type: in vivo; conditions: rabbit
[4] = Cardiovascular change (HR, BP) at equi-efficacious dose in dogs; type: in vivo; conditions: dog
neuromuscular blockade = conditions: background, in words; cited from earlier work
[5] = Table IV, at equi-efficacious dose
[6] = Table V, at equi-efficacious dose
[7] = depolarizer, based on twitch recovery not to-f

## C[C@]12CC[C@@H]([N+]3(C)CCCC3)C[C@@H]1CC[C@@H]1[C@@H]2CC[C@@]2(C)[C@H]1CCC[N+]2(C)C.[Br-].[Br-] [RGH-4201]
Paw twitch [1]
  Equi-efficacious dose: 0.077 mg/kg
  Duration (DURAT.): 28.3 min
  Onset: 123.6 s
  Recovery (RECOV.): 22.0 min
Paw twitch [2]
  Equi-efficacious dose: 0.070 mg/kg
  Duration (DURAT.): 7.7 min
  Onset: 35.4 s
  Recovery (RECOV.): 6.1 min
[3]; in vivo
  BP %: 2.6%
  HR %: 0.3%
[4]; in vivo
  BP %: 1.4%
  HR %: 11.3%

## COc1ccc(CC2c3cc(OC)c(OC)cc3CC[N+]2(C)CCC(=O)OCCCCCOC(=O)CC[N+]2(C)CCc3cc(OC)c(OC)cc3C2Cc2ccc(OC)c(OC)c2)cc1OC (stereo not drawn) [atracurium]
Paw twitch [1]
  ED90: 0.086 mg/kg
  Duration (DURAT.): 27.9 min
  Onset: 159.4 s
  Recovery (RECOV.): 20.4 min
Paw twitch [2]
  ED90: 0.046 mg/kg
  Duration (DURAT.): 14.3 min
  Onset: 126.9 s
  Recovery (RECOV.): 12.2 min
[3]; in vivo
  BP %: -3.4%
  HR %: -1.0%
[4]; in vivo
  BP %: 0.3%
  HR %: 3.3%

## COc1cc2c3cc1Oc1cc(ccc1O)C[C@@H]1c4c(cc(OC)c(O)c4Oc4ccc(cc4)C[C@@H]3N(C)CC2)CC[N+]1(C)C [d-tubocurarine]
Neuromuscular blockade
  duration of paralysis and recovery: maintain paralysis for an undesirably long time and the recovery period is slow
Paw twitch [1]
  Equi-efficacious dose: 0.254 mg/kg
  Duration (DURAT.): 60.0 min
  Onset: 150.8 s
  Recovery (RECOV.): 55.3 min
Paw twitch [2]
  Equi-efficacious dose: 0.229 mg/kg
  Duration (DURAT.): 37.3 min
  Onset: 85.0 s
  Recovery (RECOV.): 34.8 min
[3]; [5]
  BP %: 4.8%
  HR %: -0.3%
[4]; [6]
  BP %: -25.8%
  HR %: 8.7%

## CC(=O)O[C@H]1C[C@@H]2CC[C@@H]3[C@H](CC[C@@]4(C)[C@H]3C[C@H]([N+]3(C)CCCCC3)[C@@H]4OC(C)=O)[C@@]2(C)C[C@@H]1[N+]1(C)CCCCC1 [pancuronium]
Neuromuscular blockade
  duration of paralysis and recovery: maintain paralysis for an undesirably long time and the recovery period is slow
Paw twitch [1]
  ED90: 0.013 mg/kg
  Duration (DURAT.): 45.7 min
  Onset: 169.0 s
  Recovery (RECOV.): 35.6 min
Paw twitch [2]
  ED90: 0.022 mg/kg
  Duration (DURAT.): 32.5 min
  Onset: 147.5 s
  Recovery (RECOV.): 17.4 min
[3]; [5]
  BP %: 2.7%
  HR %: 0.0%
[4]; [6]
  BP %: -1.8%
  HR %: 0.2%

## C[N+](C)(C)CCOC(=O)CCC(=O)OCC[N+](C)(C)C [succinylcholine]
Neuromuscular blockade
  reversibility by anticholinesterase drugs: not easily reversed by anticholinesterase drugs
Paw twitch [1]
  ED90: 0.043 mg/kg
  Onset: 98.9 s
Paw twitch [1]; [7]
  Duration (DURAT.): 8.8 min
  Recovery (RECOV.): 5.4 min
Paw twitch [2]
  ED90: 0.447 mg/kg
  Onset: 39.4 s
Paw twitch [2]; [7]
  Duration (DURAT.): 18.6 min
  Recovery (RECOV.): 18.6 min
[3]; [5]
  BP %: -4.1%
  HR %: 0.2%
[4]; [6]
  BP %: 25.7%
  HR %: 34.9%

## CC(=O)O[C@H]1C[C@@H]2CC[C@@H]3[C@H](CC[C@@]4(C)[C@H]3C[C@H]([N+]3(C)CCCCC3)[C@@H]4OC(C)=O)[C@@]2(C)C[C@@H]1N1CCCCC1 [vecuronium]
Paw twitch [1]
  ED90: 0.019 mg/kg
  Duration (DURAT.): 26.6 min
  Onset: 171.0 s
  Recovery (RECOV.): 21.8 min
Paw twitch [2]
  ED90: 0.019 mg/kg
  Duration (DURAT.): 16.8 min
  Onset: 97.3 s
  Recovery (RECOV.): 9.6 min
[3]; [5]
  BP %: 1.1%
  HR %: -1.9%
[4]; [6]
  BP %: 2.3%
  HR %: 3.5%
